Source: patent US12258328B2, “6-membered heteroaryl-containing aminopyridine compounds as EGFR inhibitors” (YUHAN CORPORATION, priority 2021, dated 2025)
Read-outs that look alike come from different tables or passages of the source.

Tests used:
[1] = target: EGFR del19/C797S (Homo sapiens, UniProt P00533, C797S/DEL746-750); assay: Biochemical EGFR kinase assay (Lance Ultra TR-FRET), double mutant del19/C797S
How it was run: (§1)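 Enzyme reactions lasted 1 hour at room temperature with test compounds between 0.003 and 10 μM, followed by 10 mM EDTA quench.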

[2] = target: EGFR wildtype (Homo sapiens, UniProt P00533); assay: Biochemical EGFR kinase assay (Lance Ultra TR-FRET), wildtype
How it was run: as §1

[3] = target: EGFR L858R/T790M/C797S (Homo sapiens, UniProt P00533, C797S/L858R/T790M); assay: Biochemical EGFR kinase assay (Lance Ultra TR-FRET), triple mutant L858R/T790M/C797S
How it was run: as §1

[4] = target: EGFR del19/T790M/C797S (Homo sapiens, UniProt P00533, C797S/DEL746-750/T790M); assay: Biochemical EGFR kinase assay (Lance Ultra TR-FRET), triple mutant del19/T790M/C797S
How it was run: as §1

[5] = target: EGFR L858R/C797S (Homo sapiens, UniProt P00533, C797S/L858R); assay: Biochemical EGFR kinase assay (Lance Ultra TR-FRET), double mutant L858R/C797S
How it was run: as §1

[6] = Km ATP, read-out: IC50 del19/C797S (nM) Km ATP
[7] = Km ATP, read-out: IC50 WT (nM) Km ATP
[8] = Km ATP, read-out: IC50 L858R/T790M/C797S (nM) Km ATP
[9] = Km ATP, read-out: IC50 del19/T790M/C797S (nM) Km ATP
[10] = Km ATP, read-out: IC50 L858R/C797S (nM) Km ATP
[11] = ATP at Km, read-out: IC50 del19/C797S, Km ATP
[12] = ATP at Km, read-out: IC50 WT, Km ATP
[13] = ATP at Km, read-out: IC50 L858R/T790M/C797S, Km ATP
[14] = ATP at Km, read-out: IC50 del19/T790M/C797S, Km ATP
[15] = ATP at Km, read-out: IC50 L858R/C797S, Km ATP
[16] = IC50 L858R/T790M/C797S, 100 μM ATP
[17] = IC50 del19/T790M/C797S, 100 μM ATP

EGFR del19/T790M/C797S, sequence (P00533 with tags, fused parts or gaps DEL746-750/T790M/C797S): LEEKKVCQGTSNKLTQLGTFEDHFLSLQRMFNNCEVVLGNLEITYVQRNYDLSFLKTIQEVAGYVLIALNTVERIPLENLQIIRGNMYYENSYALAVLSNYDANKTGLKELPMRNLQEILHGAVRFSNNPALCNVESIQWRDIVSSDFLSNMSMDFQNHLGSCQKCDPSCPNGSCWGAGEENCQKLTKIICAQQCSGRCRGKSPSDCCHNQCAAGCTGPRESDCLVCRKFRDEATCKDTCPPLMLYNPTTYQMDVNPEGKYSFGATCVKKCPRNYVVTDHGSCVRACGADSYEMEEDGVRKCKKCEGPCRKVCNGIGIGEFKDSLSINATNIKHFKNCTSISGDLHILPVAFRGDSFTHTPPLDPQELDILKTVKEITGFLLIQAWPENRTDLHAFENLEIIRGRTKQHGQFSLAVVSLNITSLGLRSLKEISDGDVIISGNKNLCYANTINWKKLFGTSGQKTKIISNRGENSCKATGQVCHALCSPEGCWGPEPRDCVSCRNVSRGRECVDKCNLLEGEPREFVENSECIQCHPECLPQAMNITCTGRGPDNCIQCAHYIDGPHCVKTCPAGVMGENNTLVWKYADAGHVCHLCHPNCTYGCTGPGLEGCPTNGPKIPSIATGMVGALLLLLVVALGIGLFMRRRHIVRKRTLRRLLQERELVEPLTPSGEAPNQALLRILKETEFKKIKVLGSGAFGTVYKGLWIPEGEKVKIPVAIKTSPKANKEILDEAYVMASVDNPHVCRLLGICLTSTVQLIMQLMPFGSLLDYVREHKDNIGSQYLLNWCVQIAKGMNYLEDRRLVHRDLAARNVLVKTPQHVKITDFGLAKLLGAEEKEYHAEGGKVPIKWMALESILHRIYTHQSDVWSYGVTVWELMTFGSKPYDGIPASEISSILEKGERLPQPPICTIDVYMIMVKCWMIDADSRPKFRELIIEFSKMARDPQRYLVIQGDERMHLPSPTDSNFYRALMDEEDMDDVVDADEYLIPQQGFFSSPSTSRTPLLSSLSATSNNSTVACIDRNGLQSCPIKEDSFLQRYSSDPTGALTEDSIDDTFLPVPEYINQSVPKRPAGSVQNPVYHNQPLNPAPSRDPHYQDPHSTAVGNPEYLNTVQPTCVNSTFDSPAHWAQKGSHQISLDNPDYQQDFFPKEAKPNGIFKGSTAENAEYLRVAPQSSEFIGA
EGFR L858R/C797S, sequence (P00533 25-1210 C797S/L858R): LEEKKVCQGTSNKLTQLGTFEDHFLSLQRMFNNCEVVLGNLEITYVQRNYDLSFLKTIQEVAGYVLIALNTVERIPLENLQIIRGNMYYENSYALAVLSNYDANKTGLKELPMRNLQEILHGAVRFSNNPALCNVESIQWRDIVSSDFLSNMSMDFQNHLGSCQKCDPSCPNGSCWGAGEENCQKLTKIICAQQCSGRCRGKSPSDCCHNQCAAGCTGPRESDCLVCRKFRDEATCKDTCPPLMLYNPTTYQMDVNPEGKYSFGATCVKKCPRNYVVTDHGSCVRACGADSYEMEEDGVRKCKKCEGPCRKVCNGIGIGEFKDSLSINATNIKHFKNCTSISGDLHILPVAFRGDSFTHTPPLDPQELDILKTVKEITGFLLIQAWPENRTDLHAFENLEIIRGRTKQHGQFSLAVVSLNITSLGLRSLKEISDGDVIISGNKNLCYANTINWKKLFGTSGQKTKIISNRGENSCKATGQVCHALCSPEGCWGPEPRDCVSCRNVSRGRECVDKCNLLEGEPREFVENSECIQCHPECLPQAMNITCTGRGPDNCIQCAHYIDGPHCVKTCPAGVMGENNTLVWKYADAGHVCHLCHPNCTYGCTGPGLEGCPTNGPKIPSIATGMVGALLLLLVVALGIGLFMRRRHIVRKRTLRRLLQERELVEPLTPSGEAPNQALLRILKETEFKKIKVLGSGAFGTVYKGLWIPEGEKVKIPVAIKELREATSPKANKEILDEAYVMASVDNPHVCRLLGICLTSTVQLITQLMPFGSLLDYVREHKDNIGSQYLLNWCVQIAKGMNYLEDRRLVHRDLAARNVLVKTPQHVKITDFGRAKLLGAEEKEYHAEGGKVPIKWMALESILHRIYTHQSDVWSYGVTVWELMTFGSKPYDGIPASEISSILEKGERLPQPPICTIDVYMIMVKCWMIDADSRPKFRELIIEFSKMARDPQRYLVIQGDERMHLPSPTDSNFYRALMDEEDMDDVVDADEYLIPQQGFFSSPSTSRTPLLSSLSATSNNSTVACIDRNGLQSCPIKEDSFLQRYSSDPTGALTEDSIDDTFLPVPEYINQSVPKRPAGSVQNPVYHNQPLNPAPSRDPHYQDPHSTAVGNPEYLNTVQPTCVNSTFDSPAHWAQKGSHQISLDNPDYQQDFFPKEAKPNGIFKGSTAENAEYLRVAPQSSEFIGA
EGFR L858R/T790M/C797S, sequence (P00533 25-1210 T790M/C797S/L858R): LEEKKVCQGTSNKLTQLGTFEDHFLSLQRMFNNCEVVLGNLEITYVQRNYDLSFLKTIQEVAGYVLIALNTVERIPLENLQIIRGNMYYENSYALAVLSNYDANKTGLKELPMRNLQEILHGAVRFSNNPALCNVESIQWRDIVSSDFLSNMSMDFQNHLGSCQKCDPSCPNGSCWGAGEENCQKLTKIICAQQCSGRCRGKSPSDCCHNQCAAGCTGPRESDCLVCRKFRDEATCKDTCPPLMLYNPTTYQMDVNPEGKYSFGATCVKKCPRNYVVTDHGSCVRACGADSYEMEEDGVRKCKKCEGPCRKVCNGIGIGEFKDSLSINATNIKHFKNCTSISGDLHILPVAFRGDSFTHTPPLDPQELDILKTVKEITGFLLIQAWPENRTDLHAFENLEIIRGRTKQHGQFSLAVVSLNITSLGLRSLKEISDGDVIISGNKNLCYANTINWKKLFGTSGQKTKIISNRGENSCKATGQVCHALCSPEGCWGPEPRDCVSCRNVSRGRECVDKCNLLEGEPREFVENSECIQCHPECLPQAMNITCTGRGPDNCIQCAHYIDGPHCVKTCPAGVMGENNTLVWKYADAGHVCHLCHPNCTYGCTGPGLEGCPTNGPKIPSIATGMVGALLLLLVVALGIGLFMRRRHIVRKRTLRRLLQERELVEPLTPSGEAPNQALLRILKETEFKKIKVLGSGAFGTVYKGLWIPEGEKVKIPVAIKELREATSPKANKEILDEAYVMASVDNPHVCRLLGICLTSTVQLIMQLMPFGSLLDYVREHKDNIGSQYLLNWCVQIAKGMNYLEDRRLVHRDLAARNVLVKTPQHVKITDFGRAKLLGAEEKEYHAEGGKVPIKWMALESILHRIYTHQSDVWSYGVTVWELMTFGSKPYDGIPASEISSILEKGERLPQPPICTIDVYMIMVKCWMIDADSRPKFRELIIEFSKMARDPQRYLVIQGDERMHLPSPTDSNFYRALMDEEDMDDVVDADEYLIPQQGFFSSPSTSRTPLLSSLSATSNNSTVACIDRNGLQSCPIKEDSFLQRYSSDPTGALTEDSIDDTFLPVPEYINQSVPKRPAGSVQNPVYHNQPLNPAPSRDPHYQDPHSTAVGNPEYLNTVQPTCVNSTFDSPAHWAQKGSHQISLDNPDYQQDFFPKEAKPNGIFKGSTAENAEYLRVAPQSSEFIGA
EGFR wildtype, sequence (P00533 25-1210): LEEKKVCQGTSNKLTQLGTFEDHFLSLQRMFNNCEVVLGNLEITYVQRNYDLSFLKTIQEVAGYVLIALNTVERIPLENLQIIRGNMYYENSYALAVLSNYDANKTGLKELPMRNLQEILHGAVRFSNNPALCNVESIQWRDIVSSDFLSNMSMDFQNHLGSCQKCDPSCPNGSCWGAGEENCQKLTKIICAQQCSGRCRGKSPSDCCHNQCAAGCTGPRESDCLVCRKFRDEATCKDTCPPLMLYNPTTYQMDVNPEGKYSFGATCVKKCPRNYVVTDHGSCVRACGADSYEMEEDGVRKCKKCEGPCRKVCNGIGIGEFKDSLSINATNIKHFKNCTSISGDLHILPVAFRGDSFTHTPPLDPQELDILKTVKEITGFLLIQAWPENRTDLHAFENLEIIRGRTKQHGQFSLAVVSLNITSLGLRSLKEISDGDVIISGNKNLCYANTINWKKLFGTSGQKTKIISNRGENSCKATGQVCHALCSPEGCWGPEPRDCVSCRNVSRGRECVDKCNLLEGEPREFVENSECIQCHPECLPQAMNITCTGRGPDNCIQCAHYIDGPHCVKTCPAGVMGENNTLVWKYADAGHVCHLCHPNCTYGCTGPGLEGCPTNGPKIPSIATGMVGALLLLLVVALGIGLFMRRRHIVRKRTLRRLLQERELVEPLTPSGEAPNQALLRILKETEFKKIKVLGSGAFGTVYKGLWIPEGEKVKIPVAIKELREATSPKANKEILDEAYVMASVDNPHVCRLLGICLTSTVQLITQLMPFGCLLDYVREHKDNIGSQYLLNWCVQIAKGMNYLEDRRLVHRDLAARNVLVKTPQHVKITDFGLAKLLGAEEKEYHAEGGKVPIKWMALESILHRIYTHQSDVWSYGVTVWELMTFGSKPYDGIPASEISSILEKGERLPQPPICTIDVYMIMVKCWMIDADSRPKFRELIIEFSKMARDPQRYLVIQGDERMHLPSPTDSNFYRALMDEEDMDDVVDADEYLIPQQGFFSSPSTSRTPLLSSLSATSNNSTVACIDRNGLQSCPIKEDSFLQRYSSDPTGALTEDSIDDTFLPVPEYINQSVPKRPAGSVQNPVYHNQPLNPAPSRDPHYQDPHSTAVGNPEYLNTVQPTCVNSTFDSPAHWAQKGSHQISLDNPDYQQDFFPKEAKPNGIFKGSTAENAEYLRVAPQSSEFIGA

Work on `CN1CCC(Oc2ccc(-c3cnc(Nc4ccnc(-c5cnn(S(=O)(=O)C6CC6)c5)n4)cc3NC3CCC(F)(F)C3)nc2)CC1` (stereo not drawn) [Example 143, N^6′-(2-(1-(Cyclopropylsulfonyl)-1H-pyrazol-4-yl)pyrimidin-4-yl)-N^4′-(3,3-difluorocyclopentyl)-5-((1-methylpiperidin-4-yl)oxy)-[2,3′-bipyridine]-4′,6′-diamine] yielded an IC50 [1, 6] of 1 nM, an IC50 [2, 7] of 7.9 nM and an IC50 [3, 8] of 0.2 nM. For the same compound, the IC50 [4, 9] was 0.1 nM and the IC50 [5, 10] was 1.1 nM.
`CN1CCC(Oc2cnc(-c3cnc(Nc4ccnc(-c5cnn(S(=O)(=O)C6CC6)c5)n4)cc3N[C@H]3CC[C@@H](F)CC3)cn2)CC1` [Example 144, N^2-(2-(1-(Cyclopropylsulfonyl)-1H-pyrazol-4-yl)pyrimidin-4-yl)-N^4-((1s,4s)-4-fluorocyclohexyl)-5-(5-((1-methylpiperidin-4-yl)oxy)pyrazin-2-yl)pyridine-2,4-diamine] was tested, and the IC50 [1, 6] was 2.2 nM, the IC50 [2, 7] was 26.3 nM and the IC50 [3, 8] was 0.1 nM. For the same compound, the IC50 [4, 9] was 0.3 nM and the IC50 [5, 10] was 1.2 nM.
With `CN1CCC(Oc2cnc(-c3cnc(Nc4ccnc(-c5cnn(S(=O)(=O)C6CC6)c5)n4)cc3N[C@H]3CC[C@@H](CO)CC3)cn2)CC1` [Example 146, ((1s,4s)-4-((2-((2-(1-(Cyclopropylsulfonyl)-1H-pyrazol-4-yl)pyrimidin-4-yl)amino)-5-(5-((1-methylpiperidin-4-yl)oxy)pyrazin-2-yl)pyridin-4-yl)amino)cyclohexyl)methanol] the IC50 [1, 6] was 0.3 nM, the IC50 [2, 7] was 0.8 nM and the IC50 [3, 8] was 0.02 nM. For the same compound, the IC50 [4, 9] was 0.1 nM and the IC50 [5, 10] was 0.1 nM.
Work on `CN1CCC(Oc2cnc(-c3cnc(Nc4ccnc(-c5cnn(S(=O)(=O)C6CC6)c5)n4)cc3N[C@H]3CC[C@@H](C(C)(C)O)CC3)cn2)CC1` [Example 147, 2-((1s,4s)-4-((2-((2-(1-(Cyclopropylsulfonyl)-1H-pyrazol-4-yl)pyrimidin-4-yl)amino)-5-(5-((1-methylpiperidin-4-yl)oxy)pyrazin-2-yl)pyridin-4-yl)amino)cyclohexyl)propan-2-ol] yielded an IC50 [1, 6] of 0.4 nM, an IC50 [2, 7] of 2.3 nM and an IC50 [3, 8] of 0.1 nM. It also gave an IC50 [4, 9] of 0.3 nM and an IC50 [5, 10] of 0.1 nM.
With `C[C@]1(O)CC[C@@H](Nc2cc(Nc3ccnc(-c4cnn(S(=O)(=O)C5CC5)c4)n3)ncc2-c2cnc(OC3CCOCC3)cn2)CC1` [Example 148, (1s,4s)-4-((2-((2-(1-(Cyclopropylsulfonyl)-1H-pyrazol-4-yl)pyrimidin-4-yl)amino)-5-(5-((tetrahydro-2H-pyran-4-yl)oxy)pyrazin-2-yl)pyridin-4-yl)amino)-1-methylcyclohexan-1-ol] the IC50 [1, 6] was 2 nM, the IC50 [2, 7] was 15.1 nM and the IC50 [3, 8] was 0.3 nM. For the same compound, the IC50 [4, 9] was 0.3 nM and the IC50 [5, 10] was 1 nM.
For `CC1(O)CCC(Nc2cc(Nc3ccnc(-c4cnn(S(=O)(=O)C5CC5)c4)n3)ncc2-c2cnc(OC3CCOC3)cn2)CC1` (stereo not drawn) [Example 149, (1s,4s)-4-((2-((2-(1-(Cyclopropylsulfonyl)-1H-pyrazol-4-yl)pyrimidin-4-yl)amino)-5-(5-((tetrahydrofuran-3-yl)oxy)pyrazin-2-yl)pyridin-4-yl)amino)-1-methylcyclohexan-1-ol], the IC50 [1, 6] was 1 nM, the IC50 [2, 7] was 11.2 nM and the IC50 [3, 8] was 0.3 nM. For the same compound, the IC50 [4, 9] was 0.4 nM and the IC50 [5, 10] was 0.4 nM.
`C[C@]1(O)CC[C@@H](Nc2cc(Nc3ccnc(-c4cnn(S(=O)(=O)C5CC5)c4)n3)ncc2-c2cnc(OC3COC3)cn2)CC1` [Example 150, (1s,4s)-4-((2-((2-(1-(Cyclopropylsulfonyl)-1H-pyrazol-4-yl)pyrimidin-4-yl)amino)-5-(5-(oxetan-3-yloxy)pyrazin-2-yl)pyridin-4-yl)amino)-1-methylcyclohexan-1-ol] gave an IC50 [1, 6] of 0.5 nM, an IC50 [2, 7] of 6.2 nM and an IC50 [3, 8] of 0.1 nM. The IC50 [4, 9] was 0.2 nM and the IC50 [5, 10] was 0.4 nM.
In the case of `O=S(=O)(C1CC1)n1cc(-c2nccc(Nc3cc(N[C@H]4CC[C@@H](F)CC4)c(-c4cnc(OC5CCOCC5)cn4)cn3)n2)cn1` [Example 151, N^2-(2-(1-(Cyclopropylsulfonyl)-1H-pyrazol-4-yl)pyrimidin-4-yl)-N^4-((1s,4s)-4-fluorocyclohexyl)-5-(5-((tetrahydro-2H-pyran-4-yl)oxy)pyrazin-2-yl)pyridine-2,4-diamine], the IC50 [1, 11] is reported as 34 nM, the IC50 [2, 12] is reported as 1910 nM and the IC50 [3, 13] is reported as 0.1 nM. For the same compound, the IC50 [4, 14] was 0.8 nM and the IC50 [5, 15] was 17.2 nM.
With `O=S(=O)(C1CC1)n1cc(-c2nccc(Nc3cc(NC4CCC(F)CC4)c(-c4cnc(OC5CCOC5)cn4)cn3)n2)cn1` (stereo not drawn) [Example 152, N^2-(2-(1-(Cyclopropylsulfonyl)-1H-pyrazol-4-yl)pyrimidin-4-yl)-N^4-((1s,4s)-4-fluorocyclohexyl)-5-(5-((tetrahydrofuran-3-yl)oxy)pyrazin-2-yl)pyridine-2,4-diamine] the IC50 [1, 11] was 214 nM, the IC50 [2, 12] was greater than 10000 nM and the IC50 [3, 13] was 0.1 nM. For the same compound, the IC50 [4, 14] was 0.5 nM and the IC50 [5, 15] was 13.1 nM.
With `C[C@]1(O)CC[C@@H](Nc2cc(Nc3ccnc(-c4cnn(S(=O)(=O)C5CC5)c4)n3)ncc2-c2cnc(OC3CCN(CCF)CC3)cn2)CC1` [Example 153, (1s,4s)-4-((2-((2-(1-(Cyclopropylsulfonyl)-1H-pyrazol-4-yl)pyrimidin-4-yl)amino)-5-(5-((1-(2-fluoroethyl)piperidin-4-yl)oxy)pyrazin-2-yl)pyridin-4-yl)amino)-1-methylcyclohexan-1-ol] the IC50 [1, 11] was 0.2 nM, the IC50 [2, 12] was 3.2 nM and the IC50 [3, 13] was 0.1 nM. The IC50 [4, 14] was 0.4 nM and the IC50 [5, 15] was 0.2 nM.
In the case of `CN1CCC(F)(COc2cnc(-c3cnc(Nc4ccnc(-c5cnn(S(=O)(=O)C6CC6)c5)n4)cc3N[C@H]3CC[C@@](C)(O)CC3)cn2)CC1` [Example 154, (1s,4s)-4-((2-((2-(1-(Cyclopropylsulfonyl)-1H-pyrazol-4-yl)pyrimidin-4-yl)amino)-5-(5-((4-fluoro-1-methylpiperidin-4-yl)methoxy)pyrazin-2-yl)pyridin-4-yl)amino)-1-methylcyclohexan-1-ol], the IC50 [1, 11] is reported as 0.3 nM, the IC50 [2, 12] is reported as 2.7 nM and the IC50 [3, 13] is reported as 0.1 nM. The IC50 [4, 14] was 0.2 nM and the IC50 [5, 15] was 0.2 nM.
Work on `CS(=O)(=O)c1ccc(-c2cnc(Nc3ccnc(-c4cnn(S(=O)(=O)C5CC5)c4)n3)cc2N[C@H]2CC[C@@](C)(O)CC2)nc1` [Example 156, (1s,4s)-4-((6′-((2-(1-(Cyclopropylsulfonyl)-1H-pyrazol-4-yl)pyrimidin-4-yl)amino)-5-(methylsulfonyl)-[2,3′-bipyridin]-4′-yl)amino)-1-methylcyclohexan-1-ol] yielded an IC50 [1, 11] of 0.3 nM, an IC50 ([1]; IC50 del19/C797S, 100 μM ATP) of 0.3 nM and an IC50 ([2]; IC50 WT, 100 μM ATP) greater than 10000 nM. For the same compound, the IC50 [3, 13] was 0.1 nM, the IC50 [3, 16] was 0.2 nM and the IC50 [4, 14] was 0.1 nM. It also gave an IC50 [4, 17] of 0.2 nM and an IC50 [5, 15] of 0.4 nM.
`CS(=O)(=O)c1ccc(-c2cnc(Nc3ccnc(-c4cnn(S(=O)(=O)C5CC5)c4)n3)cc2N[C@H]2CC[C@@H](NCCF)CC2)nc1` [Example 157, N^6′-(2-(1-(Cyclopropylsulfonyl)-1H-pyrazol-4-yl)pyrimidin-4-yl)-N^4′-((1s,4s)-4-((2-fluoroethyl)amino)cyclohexyl)-5-(methylsulfonyl)-[2,3′-bipyridine]-4′,6′-diamine] gave an IC50 [1, 11] of 0.8 nM, an IC50 ([1]; IC50 del19/C797S, 100 μM ATP) of 0.6 nM and an IC50 [2, 12] of 6.9 nM. The IC50 ([2]; IC50 WT, 100 μM ATP) was 2930 nM, the IC50 [3, 13] was 0.1 nM and the IC50 [3, 16] was 0.1 nM. The IC50 [4, 14] was 0.1 nM, the IC50 [4, 17] was 0.1 nM and the IC50 [5, 15] was 0.8 nM. The IC50 ([5]; IC50 L858R/C797S, 100 μM ATP) was 11.2 nM.
Compound `CS(=O)(=O)c1ccc(-c2cnc(Nc3ccnc(-c4cnn(S(=O)(=O)C5CC5)c4)n3)cc2N[C@H]2CC[C@@H](CO)CC2)nc1` [Example 158, ((1s,4s)-4-((6′-((2-(1-(Cyclopropylsulfonyl)-1H-pyrazol-4-yl)pyrimidin-4-yl)amino)-5-(methylsulfonyl)-[2,3′-bipyridin]-4′-yl)amino)cyclohexyl)methanol] has an IC50 ([1]; IC50 del19/C797S, 100 μM ATP) of 0.4 nM, an IC50 ([2]; IC50 WT, 100 μM ATP) of 541 nM and an IC50 [3, 16] of 0.4 nM. The IC50 [4, 17] was 0.3 nM and the IC50 ([5]; IC50 L858R/C797S, 100 μM ATP) was 2.4 nM.
Work on `CN(C)C[C@H]1CC[C@@H](Nc2cc(Nc3ccnc(-c4cnn(S(=O)(=O)C5CC5)c4)n3)ncc2-c2ccc(S(C)(=O)=O)cn2)CC1` [Example 159, N^6′-(2-(1-(Cyclopropylsulfonyl)-1H-pyrazol-4-yl)pyrimidin-4-yl)-N^4′-((1s,4s)-4-((dimethylamino)methyl)cyclohexyl)-5-(methylsulfonyl)-[2,3′-bipyridine]-4′,6′-diamine] yielded an IC50 ([1]; IC50 del19/C797S, 100 μM ATP) of 0.2 nM, an IC50 ([2]; IC50 WT, 100 μM ATP) of 323 nM and an IC50 [3, 16] of 0.1 nM. It also gave an IC50 [4, 17] of 0.1 nM and an IC50 ([5]; IC50 L858R/C797S, 100 μM ATP) of 1.2 nM.
In the case of `CC(C)(O)[C@H]1CC[C@@H](Nc2cc(Nc3ccnc(-c4cnn(S(=O)(=O)C5CC5)c4)n3)ncc2-c2ccc(S(C)(=O)=O)cn2)CC1` [Example 160, 2-((1s,4s)-4-((6′-((2-(1-(Cyclopropylsulfonyl)-1H-pyrazol-4-yl)pyrimidin-4-yl)amino)-5-(methylsulfonyl)-[2,3′-bipyridin]-4′-yl)amino)cyclohexyl)propan-2-ol], the IC50 [1, 11] is reported as 0.5 nM, the IC50 ([1]; IC50 del19/C797S, 100 μM ATP) is reported as 1.3 nM and the IC50 [2, 12] is reported as 5.1 nM. The IC50 ([2]; IC50 WT, 100 μM ATP) was greater than 10000 nM, the IC50 [3, 13] was 0.2 nM and the IC50 [3, 16] was 0.7 nM. The IC50 [4, 14] was 0.5 nM, the IC50 [4, 17] was 0.8 nM and the IC50 [5, 15] was 3 nM. It also gave an IC50 ([5]; IC50 L858R/C797S, 100 μM ATP) of 15 nM.
